Test results: patent US20230271959A1, “HETEROCYCLIC COMPOUND AS BCL-2 INHIBITOR” (Beijing Innocare Pharma Tech Co., Ltd., priority 2020, published 2023)

Tests used:
[1] = tested on: RS4;11 cells (acute lymphoblastic leukemia cells); assay: RS4;11 cell proliferation, CellTilter-Glo luminescence cell viability assay; assay type: cell-based; conditions: Homo sapiens, RS4-11; CTG readout after 48 hours
Description: The effects of the compounds of the present invention on the proliferation of RS4;11 cells were evaluated using a luminescence cell viability assay.
A CellTilter-Glo (CTG) Assay Kit is used to detect ATP, a key indicator of the metabolism of living cells, through a unique, highly sensitive and stable luciferase. The luminescent signal generated in the assay is proportional to the number of the viable cells in the medium, therefore the cell proliferation of RS4;11 can be determined.
CellTilter-Glo reagent (Promega, G7572) is composed of CellTilter-Glo lyophilized powder and CellTilter-Glo buffer, and the lyophilized powder can be dissolved in the buffer for use.
RS4;11 cells (ATCC, CRL-1873) were cultured in RPMI1640 complete medium (Thermofisher, 72400-047) containing 10% FBS (GBICO, 10099-141) and 100 units/ml penicillin-streptomycin solution (Thermofisher, 15140122)), when the cells covered 80-90% in the culture vessel, they were digested and dispersed with 0.25% trypsin (containing EDTA) (Thermofisher, 25200056) and then planted in a white 384-well plate (Thermofisher, 164610), and then the 384-well plate was incubated overnight in a 37° C., 5% CO2 incubator. Compounds were dissolved in 100% DMSO and diluted to […], followed by 4-fold serial dilutions with DMSO to a minimum concentration of 0.061 μM, and each concentration point was further diluted 50-fold with FBS-free RPMI1640 medium. If the IC50 of the compound is very low, the initial concentration of the compound can be reduced. After overnight, 3 μL of the compound diluted in the medium was added to each well, and the mixture was gently centrifuged to mix. The group without cells was used as a negative control (100% inhibition), and the group with 0.2% DMSO was used as a positive control (0% inhibition). The 384-well plate was placed in a 37° C., 5% CO2 incubator for further cultivation. After 48 hours, the plate was taken out and equilibrated to room temperature. 15 μl of CTG reagent was added to each well, the plate was shaken gently for 3 minutes to make sure that the cell lysis was carried out thoroughly, then the plate was kept for 10 minutes to stabilize the luminescence signal, then the luminescence signal was read by EnVision (Perkin Elmer).
The inhibition percentage of the compounds to RS4;11 cell proliferation can be calculated using the following equation:
Inhibition Percentage=100−100*(signal compound-signal negative control)/(signal positive control-signal negative control)
(§1) The IC50 of the compound was calculated from 8 concentration points using XLfit (ID Business Solutions Ltd., UK) software by the following equation:
Y=Bottom+(Top−Bottom)/(1+10^((Log IC50−X)*slope factor))
wherein, Y is the inhibition percentage, Bottom is the bottom plateau of the curve (the bottom plateau value of the S-shaped curve), Top is the top plateau of the curve (the top plateau value of the S-shaped curve), and X is the logarithm of the concentration of the compound to be tested.

[2] = target: T1, human recombinant Bcl-2 protein (Homo sapiens, UniProt P10415); assay: Fluorescence polarization test for inhibition of BCL-2 binding to FITC-BIM; conditions: 5 nM BCL-2, 5 nM FITC-BIM, read-out: FP BCL-2 IC50
T1 construct: purchased Beijing Yigiao Shenzhou Biotechnology Co., Ltd. 10195-HOSE
Description: Fluorescence polarization assay was used to evaluate the effect of the compounds of the present invention on the biological activity of BCL-2.
The effects of the compounds on the biological activity of BCL-2 were evaluated by determining the effects of the compounds on the binding activity of BCL-2 to leukemia pro-apoptotic protein (BIM) using an affinity assay method based on the principle of fluorescence polarization. The reaction buffer comprises the following components: PBS (pH 7.4, 3 mM Na2HPO4, 155 mM NaCl, 1 mM KH2PO4), 1 mM DTT; human recombinant Bcl-2 protein (Item No. 10195-HOSE) (purchased from Beijing Yigiao Shenzhou Biotechnology Co., Ltd.) was diluted to 5 nM with the reaction buffer; FITC-labeled BIM polypeptide (purchased from Nanjing GenScript Biotechnology Co., Ltd.) was diluted to 5 nM with the reaction buffer.
The compounds were dissolved in 100% DMSO and diluted to 0.1, 1, 10 μM, followed by 4-fold serial dilutions with DMSO to a minimum concentration of 0.0061, 0.061, 0.61 nM, each concentration point was further diluted 50-fold with the reaction buffer.
3 μL of solution containing the compound and 12 μL of solution containing BCL-2 were added to the black 384-well assay plate, mixed well, and incubated at room temperature for 15 minutes. Subsequently, 15 μL of FITC-BIM solution was added, and the reaction mixture was incubated at room temperature for 30 minutes in dark place, and then the fluorescence polarization was detected immediately on an Envision multi-mode reader (Perkin Elmer), with 480 nm as the excitation wavelength and 535 nm as the emission wavelength. In this experiment, the group without BCL-2 protein was used as a negative control (100% inhibition), and the group with BCL-2 protein but without the compound was used as a positive control (0% inhibition). The inhibition percentage of the compound to the affinity of BCL-2 can be calculated using the following equation: […]
as §1
(§2) Y=Bottom+(Top−Bottom)/(1+10^((log IC50−X)*slope factor))
(§3) where Y is the inhibition percentage, X is the logarithm of the concentration of the compound to be tested, Bottom is the maximum inhibition percentage, Top is the minimum inhibition percentage, and slope factor is the slope coefficient of the curve.

[3] = target: T2, human recombinant Bcl-XL protein (Homo sapiens, UniProt Q07817); assay: Fluorescence polarization test for inhibition of BCL-XL binding to FITC-BIM; conditions: 10 nM BCL-XL, 10 nM FITC-BIM, read-out: FP BCL-XL IC50
T2 construct: purchased Beijing Yiqiao Shenzhou Biotechnology Co., Ltd. 10455-H0SE
Description: Fluorescence polarization assay was used to evaluate the effect of the compounds of the present invention on the biological activity of BCL-XL.
The effects of the compounds on the biological activity of BCL-XL were evaluated by detecting the effects of the compounds on the binding activity of BCL-XL to BIM using an affinity assay method based on the principle of fluorescence polarization. The reaction buffer contains the following components: PBS (pH 7.4, 3 mM Na2HPO4, 155 mM NaCl, 1 mM KH2PO4), 1 mM DTT; human recombinant Bcl-XL protein (Item No. 10455-H0SE) (purchased from Beijing Yiqiao Shenzhou Biotechnology Co., Ltd.) was diluted to 10 nM with reaction buffer; FITC-labeled BIM polypeptide (purchased from Nanjing GenScript Biotechnology Co., Ltd) was diluted to 10 nM with reaction buffer.
The compounds were dissolved in 100% DMSO and diluted to 1 μM, followed by 4-fold serial dilutions in DMSO to a minimum concentration of 0.061 nM, each concentration point was further diluted 50-fold with reaction buffer.
3 μL of solution containing the compound and 12 μL of solution containing BCL-XL were added to the black 384-well assay plate, mixed well, and incubated at room temperature for 15 minutes. Subsequently, 15 μL of FITC-BIM solution was added, and the reaction mixture was incubated at room temperature for 30 minutes in the dark place, and then the fluorescence polarization was detected immediately on an Envision multi-plate reader (Perkin Elmer), with 480 nm as the excitation wavelength and 535 nm as the emission wavelength. In this experiment, the group without BCL-XL protein was used as a negative control (100% inhibition), and the group with BCL-XL protein but without the compound was added as a positive control (0% inhibition). The inhibition percentage of the compound to the affinity of BCL-XL can be calculated using the following equation: […]
as §1, §2, §3

T2 sequence (Q07817 whole entry): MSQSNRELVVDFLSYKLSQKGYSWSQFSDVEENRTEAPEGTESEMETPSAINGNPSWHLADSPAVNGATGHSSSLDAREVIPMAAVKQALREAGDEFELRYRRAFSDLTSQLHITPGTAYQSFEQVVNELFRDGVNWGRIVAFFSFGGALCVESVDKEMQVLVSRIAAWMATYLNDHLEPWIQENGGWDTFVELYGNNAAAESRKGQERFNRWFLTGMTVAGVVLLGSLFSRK
T1 sequence (P10415 whole entry): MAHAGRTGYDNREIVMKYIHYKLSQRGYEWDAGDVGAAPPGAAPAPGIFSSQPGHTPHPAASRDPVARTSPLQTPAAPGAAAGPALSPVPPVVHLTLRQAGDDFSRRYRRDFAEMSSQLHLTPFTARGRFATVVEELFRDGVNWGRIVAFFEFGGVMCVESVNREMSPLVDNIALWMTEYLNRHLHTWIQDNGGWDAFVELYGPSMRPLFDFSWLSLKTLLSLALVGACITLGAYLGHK

| IC50 [1] [µM] | IC50 [2] [µM] | IC50 [3] [µM] | Structure (SMILES) |
| --- | --- | --- | --- |
| 0.0062 | 0.00455 | > 1 | C[C@@H]1CN(CC2=C(c3ccc(Cl)cc3)CC(C)(C)CC2)CCN1c1ccc(C(=O)NS(=O)(=O)c2ccc(NCC3CCOCC3)c([N+](=O)[O-])c2)c(Oc2cnc3[nH]ccc3c2)c1 [Example 8, (R)-2-((1H-pyrrolo[2,3-b]pyridin-5-yl)oxy)-4-(4-((4′-chloro-5,5-dimethyl-3,4,5,6-tetrahydro-[1,1′-biphenyl]-2-yl)methyl)-2-methylpiperazin-1-yl)-N-((3-nitro-4-(((tetrahydro-2H-pyran-4-yl)methyl)amino)phenyl)sulfonyl)benzamide] |
| 0.026 | 0.00503 | > 1 | C[C@@H]1CN(CC2=C(c3ccc(Cl)cc3)CC(C)(C)CC2)CCN1c1ccc(C(=O)NS(=O)(=O)c2ccc(NCC3CCN(C4COC4)CC3)c([N+](=O)[O-])c2)c(Oc2cnc3[nH]ccc3c2)c1 [Example 9, (R)-2-((1H-pyrrolo[2,3-b]pyridin-5-yl)oxy)-4-(4-((4′-chloro-5,5-dimethyl-3,4,5,6-tetrahydro-[1,1′-biphenyl]-2-yl)methyl)-2-methylpiperazin-1-yl)-N-((3-nitro-4-(((1-(3-oxetan-yl)piperidin-4-yl)methyl)amino)phenyl)sulfonyl) benzamide] |
| 0.068 | 0.00821 | > 1 | C[C@@H]1CN(CC2=C(c3ccc(Cl)cc3)CC(C)(C)CC2)CCN1c1ccc(C(=O)NS(=O)(=O)c2cc(F)c(NCC3CCN(C4COC4)CC3)c([N+](=O)[O-])c2)c(Oc2cnc3[nH]ccc3c2)c1 [Example 10, (R)-2-((1H-pyrrolo[2,3-b]pyridin-5-yl)oxy)-4-(4-((4′-chloro-5,5-dimethyl-3,4,5,6-tetrahydro-[1,1′-biphenyl]-2-yl)methyl)-2-methylpiperazin-1-yl)-N-((3-fluoro-5-nitro-4-(((1-(3-oxetanyl)piperidin-4-yl)methyl)amino)phenyl)sulfonyl)benzamide] |
| 0.042 | 0.0128 | > 1 | C[C@@H]1CN(CC2=C(c3ccc(Cl)cc3)CC(C)(C)CC2)CCN1c1ccc(C(=O)NS(=O)(=O)c2cc(F)c(NCC3CCOCC3)c([N+](=O)[O-])c2)c(Oc2cnc3[nH]ccc3c2)c1 [Example 11] |
| 0.016 | 0.00489 | > 1 | C[C@@H]1CN(CC2=C(c3ccc(Cl)cc3)CC(C)(C)CC2)CCN1c1ccc(C(=O)NS(=O)(=O)c2ccc(NC[C@H]3COCCO3)c([N+](=O)[O-])c2)c(Oc2cnc3[nH]ccc3c2)c1 [Example 12] |
| > 0.5 | > 0.1 | > 1 | C[C@H]1CN(CC2=C(c3ccc(Cl)cc3)CC(C)(C)CC2)CCN1c1ccc(C(=O)NS(=O)(=O)c2ccc(NCC3CCOCC3)c([N+](=O)[O-])c2)c(Oc2cnc3[nH]ccc3c2)c1 [Example 13, (S)-2-((1H-pyrrolo[2,3-b]pyridin-5-yl)oxy)-4-(4-((4′-chloro-5,5-dimethyl-3,4,5,6-tetrahydro-[1,1′-biphenyl]-2-yl)methyl)-2-methylpiperazin-1-yl)-N-((3-nitro-4-(((tetrahydro-2H-pyran-4-yl)methyl)amino)phenyl)sulfonyl)benzamide] |
| 0.0038 | 0.00235 | > 1 | C[C@H]1CCC(CN2CCN(c3ccc(C(=O)NS(=O)(=O)c4cc(F)c(NCC5CCOCC5)c([N+](=O)[O-])c4)c(Oc4cnc5[nH]ccc5c4)c3)C[C@H]2C)=C(c2ccc(Cl)cc2)C1 [Example 14] |
| 0.019 | 0.00599 | > 1 | C[C@H]1CCC(CN2CCN(c3ccc(C(=O)NS(=O)(=O)c4ccc(NCC5CCOCC5)c([N+](=O)[O-])c4)c(Oc4cnc5[nH]ccc5c4)c3)C[C@H]2C)=C(c2ccc(Cl)cc2)C1 [Example 15, 2-((1H-pyrrolo[2,3-b]pyridin-5-yl)oxy)-4-((R)-4-(((S)-4′-chloro-5-methyl-3,4,5,6-tetrahydro-[1,1′-biphenyl]-2-yl)methyl)-3-methylpiperazin-1-yl)-N-((3-nitro-4-(((tetrahydro-2H-pyran-4-yl)methyl)amino)phenyl)sulfonyl)benzamide] |
| 0.0088 | 0.00341 | > 1 | C[C@H]1CCC(CN2CCN(c3ccc(C(=O)NS(=O)(=O)c4ccc(NC[C@H]5COCCO5)c([N+](=O)[O-])c4)c(Oc4cnc5[nH]ccc5c4)c3)C[C@H]2C)=C(c2ccc(Cl)cc2)C1 [Example 16, N-((4-((((S)-1,4-dioxan-2-yl)methyl)amino)-3-nitrophenyl)sulfonyl)-2-((1H-pyrrolo[2,3-b]pyridin-5-yl)oxy)-4-((R)-4-(((S)-4′-chloro-5-methyl-3,4,5,6-tetrahydro-[1,1′-biphenyl]-2-yl)methyl)-3-methylpiperazin-1-yl) benzamide] |
